Counter-ions that a name gives are not always drawn.
How the values were obtained:
[1] = tested on: colonic microbiota (fecal inoculum of two healthy adults); assay: 16S-targeted Illumina sequencing with flow cytometry, taxa abundance (second set); format: cell-based, human; settings: 24 h fermentation
Description: (§1) In a second set of in vitro experiments, at the start of the short-term colonic incubations, the test ingredients were added to nutritional medium containing basal nutrients present in the colon (e.g. host-derived glycans such as mucin). Three doses were tested per product. The nutritional medium used for this particular project was again supplemented with NaCl, MgSO4, CaCl2, hemin and bile salts, and with carbon sources glucose, starch and cellobiose. A blank, containing the same nutritional medium as that used for the product incubations, but without product addition, was included for each donor. In doing so, an assessment can be made of the background activity of the bacterial community, which results from fermentation of compounds in the nutritional medium. As a source of the colonic microbiota a fecal inoculum of two healthy adults was added. Incubations were performed for 48 h at 37′C, under shaking (90 rpm) and anaerobic conditions and protected from light. […] For the second set of in vitro experiments, two techniques were combined according to Vandeputte et al.

[2] = tested on: colonic microbiota (fecal inoculum of two healthy adults); assay: Microbiome diversity, alpha and beta (second set); format: cell-based, human
Description: as §1

Row | Structure (SMILES) | Akkermansiaceae relative abundance ([1]; 0.2× dose, donor D) | Faecalibacterium prausnitzii relative abundance ([1]; 0.2× dose, donor D) | Erysipelotrichaceae relative abundance ([1]; 1× dose, donor C) | Bifidobacteriaceae relative abundance ([1]; 1× dose, donor D) | Faecalibacterium prausnitzii relative abundance ([1]; 1× dose, donor D) | Bifidobacteriaceae relative abundance ([1]; 5× dose, donor D) | Faecalibacterium prausnitzii relative abundance ([1]; 5× dose, donor D) | alpha-diversity (Shannon diversity index) ([2]; 5× dose, donor D) | beta-diversity (Bray-Curtis distance to control) ([2]; 5× dose, donor D) | Erysipelotrichaceae relative abundance ([1]; 5× dose, donor C) | beta-diversity (Bray-Curtis distance to control) ([2]; 0.2× dose, donor D) | alpha-diversity (Shannon diversity index) ([2]; 1× dose, donor C) | also measured
1 | O=C(O)CCCC[C@@H]1SC[C@@H]2NC(=O)N[C@@H]21 [biotin, D-Biotin] | increase Akkermansiaceae relative abundance | increase Faecalibacterium prausnitzii relative abundance | increase Erysipelotrichaceae relative abundance | increase Bifidobacteriaceae relative abundance | increase Faecalibacterium prausnitzii relative abundance | increase Bifidobacteriaceae relative abundance | increase Faecalibacterium prausnitzii relative abundance | increases alpha-diversity | increases beta-diversity | – | – | – | Erysipelotrichaceae relative abundance ([1]; 0.2× dose, donor C): increase Erysipelotrichaceae relative abundance; Bifidobacteriaceae relative abundance ([1]; 0.2× dose, donor D): increase Bifidobacteriaceae relative abundance; Barnesiellaceae relative abundance ([1]; 1× dose, donor D): increase Barnesiellaceae relative abundance; alpha-diversity (Shannon diversity index) ([2]; 0.2× dose, both donors): increases alpha-diversity; beta-diversity (Bray-Curtis distance to control) ([2]; 1× dose, both donors): increases beta-diversity
2 | NC(=O)c1cccnc1 [niacinamide, Niacinamide] | – | – | increase Erysipelotrichaceae relative abundance | – | – | – | – | – | increases beta-diversity | increase Erysipelotrichaceae relative abundance | increases beta-diversity | increases alpha-diversity | Akkermansiaceae relative abundance ([1]; 0.2× dose, donor C): increase Akkermansiaceae relative abundance
3 | Cc1ncc(CO)c(CO)c1O.Cl [pyridoxine, Pyridoxine Hydrochloride] | increase Akkermansiaceae relative abundance | increase Faecalibacterium prausnitzii relative abundance | increase Erysipelotrichaceae relative abundance | increase Bifidobacteriaceae relative abundance | increase Faecalibacterium prausnitzii relative abundance | increase Bifidobacteriaceae relative abundance | increase Faecalibacterium prausnitzii relative abundance | increases alpha-diversity | increases beta-diversity | – | increases beta-diversity | – | Akkermansiaceae relative abundance ([1]; 1× dose, donor D): increase Akkermansiaceae relative abundance; Prevotellaceae relative abundance ([1]; 5× dose, donor C): increase Prevotellaceae relative abundance; Akkermansiaceae relative abundance ([1]; 5× dose, donor D): increase Akkermansiaceae relative abundance; Veillonellaceae relative abundance ([1]; 5× dose, donor D): increase Veillonellaceae relative abundance; beta-diversity (Bray-Curtis distance to control) ([2]; 1× dose, donor D): increases beta-diversity
4 | Cc1ncc(C[n+]2csc(CCO)c2C)c(N)n1 [thiamine, Thiamine Hydrochloride] | – | – | – | – | – | – | – | – | increases beta-diversity | increase Erysipelotrichaceae relative abundance | – | increases alpha-diversity | Akkermansiaceae relative abundance ([1]; 1× dose, donor C): increase Akkermansiaceae relative abundance; alpha-diversity (Shannon diversity index) ([2]; 0.2× dose, donor C): increases alpha-diversity; beta-diversity (Bray-Curtis distance to control) ([2]; 1× dose, donor C): increases beta-diversity
